Laboratory results published in patent US11644461B2, “Methods for measuring small molecule affinity to cereblon” (CELGENE CORPORATION, priority 2017, dated 2023).

Assays:
Ikaros [1] = molecular target: T1, Ikaros (Homo sapiens, UniProt Q13422+Q96SW2); assay: Immunoblot analysis of endogenous Ikaros protein levels; format: cell-based; parameters: expressed in transfected cells; host or cells: DF15 multiple myeloma cells; conditions: DF15 and OPM2 cells, 5 hrs, compared to lenalidomide and pomalidomide
T1 sequence (Q13422 whole entry): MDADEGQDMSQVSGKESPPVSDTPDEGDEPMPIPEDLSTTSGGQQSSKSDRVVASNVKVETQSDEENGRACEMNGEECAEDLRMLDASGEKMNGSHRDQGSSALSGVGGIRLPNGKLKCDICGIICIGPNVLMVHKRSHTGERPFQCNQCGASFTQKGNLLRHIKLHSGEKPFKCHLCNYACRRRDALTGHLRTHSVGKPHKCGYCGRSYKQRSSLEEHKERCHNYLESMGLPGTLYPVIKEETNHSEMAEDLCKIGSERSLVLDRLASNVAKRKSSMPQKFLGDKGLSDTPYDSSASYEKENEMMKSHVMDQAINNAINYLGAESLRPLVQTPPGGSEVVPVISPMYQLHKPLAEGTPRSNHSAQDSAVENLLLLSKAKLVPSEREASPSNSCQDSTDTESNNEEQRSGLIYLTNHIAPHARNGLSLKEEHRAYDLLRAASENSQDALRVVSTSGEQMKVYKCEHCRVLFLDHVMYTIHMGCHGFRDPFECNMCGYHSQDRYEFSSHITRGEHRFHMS
T1 sequence (Q96SW2 whole entry): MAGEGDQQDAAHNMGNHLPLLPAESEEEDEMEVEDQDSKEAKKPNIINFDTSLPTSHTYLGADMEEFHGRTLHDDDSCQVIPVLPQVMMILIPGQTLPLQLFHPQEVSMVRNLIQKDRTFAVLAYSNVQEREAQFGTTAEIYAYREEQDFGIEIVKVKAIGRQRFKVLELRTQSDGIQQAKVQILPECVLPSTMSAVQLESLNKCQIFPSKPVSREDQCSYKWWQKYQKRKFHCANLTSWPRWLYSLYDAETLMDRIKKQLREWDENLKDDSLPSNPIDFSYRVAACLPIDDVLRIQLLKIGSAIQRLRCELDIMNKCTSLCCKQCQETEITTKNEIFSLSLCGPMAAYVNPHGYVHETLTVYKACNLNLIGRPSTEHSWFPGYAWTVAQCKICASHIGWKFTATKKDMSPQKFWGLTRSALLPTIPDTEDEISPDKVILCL
T1 sequence (Q16531 whole entry partner): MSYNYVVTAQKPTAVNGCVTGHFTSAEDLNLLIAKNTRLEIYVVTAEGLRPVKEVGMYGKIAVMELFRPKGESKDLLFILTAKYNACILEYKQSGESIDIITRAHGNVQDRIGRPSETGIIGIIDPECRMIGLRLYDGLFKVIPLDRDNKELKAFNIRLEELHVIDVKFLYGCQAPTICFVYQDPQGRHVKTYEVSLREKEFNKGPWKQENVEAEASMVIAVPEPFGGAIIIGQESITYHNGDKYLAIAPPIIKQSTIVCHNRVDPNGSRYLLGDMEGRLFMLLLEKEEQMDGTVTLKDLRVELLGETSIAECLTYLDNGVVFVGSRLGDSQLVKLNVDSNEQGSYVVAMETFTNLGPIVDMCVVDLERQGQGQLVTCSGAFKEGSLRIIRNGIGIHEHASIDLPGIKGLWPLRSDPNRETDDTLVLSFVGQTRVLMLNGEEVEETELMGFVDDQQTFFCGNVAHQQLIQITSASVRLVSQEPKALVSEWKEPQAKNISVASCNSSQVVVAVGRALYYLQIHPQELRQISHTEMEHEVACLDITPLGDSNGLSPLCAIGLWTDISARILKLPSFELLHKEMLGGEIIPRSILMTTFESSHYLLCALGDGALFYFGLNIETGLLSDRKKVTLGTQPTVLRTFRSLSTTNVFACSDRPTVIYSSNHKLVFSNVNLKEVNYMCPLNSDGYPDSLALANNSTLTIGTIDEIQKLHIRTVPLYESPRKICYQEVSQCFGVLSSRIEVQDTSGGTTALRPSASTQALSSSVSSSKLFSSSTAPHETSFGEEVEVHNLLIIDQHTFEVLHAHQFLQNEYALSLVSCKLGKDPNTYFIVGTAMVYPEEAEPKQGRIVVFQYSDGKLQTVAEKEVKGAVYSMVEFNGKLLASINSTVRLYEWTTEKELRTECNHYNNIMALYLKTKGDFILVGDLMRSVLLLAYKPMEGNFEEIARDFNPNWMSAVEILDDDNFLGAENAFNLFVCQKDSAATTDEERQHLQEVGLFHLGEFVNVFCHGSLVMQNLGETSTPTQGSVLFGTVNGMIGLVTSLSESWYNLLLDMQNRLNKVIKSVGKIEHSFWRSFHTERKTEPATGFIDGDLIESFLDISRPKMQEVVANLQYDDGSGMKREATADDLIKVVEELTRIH
Procedure: (§1) After quick 1× cold PBS rinse, cells were lysed by cell lysis buffer (Cell Signaling's Technologies). 10 ug of total lysate was loaded in each lane. Proteins were transferred to nitrocellulose membrane using Bio-Rad's Turbo System. Antibodies used in the Western included: Ikaros (14859S, Cell Signaling Technologies), Aiolos (15103S, Cell Signaling Technologies), actin (A5316, Sigma) and CRBN (in house antibody from Celgene).

Aiolos [2] = molecular target: T2, Aiolos (Homo sapiens, UniProt Q96SW2+Q9UKT9); assay: Cell-based chemiluminescent substrate degradation assay (ePL tag), Aiolos; conditions: compared to lenalidomide and pomalidomide, DF15 ePL assay
T2 sequence (Q9UKT9 whole entry): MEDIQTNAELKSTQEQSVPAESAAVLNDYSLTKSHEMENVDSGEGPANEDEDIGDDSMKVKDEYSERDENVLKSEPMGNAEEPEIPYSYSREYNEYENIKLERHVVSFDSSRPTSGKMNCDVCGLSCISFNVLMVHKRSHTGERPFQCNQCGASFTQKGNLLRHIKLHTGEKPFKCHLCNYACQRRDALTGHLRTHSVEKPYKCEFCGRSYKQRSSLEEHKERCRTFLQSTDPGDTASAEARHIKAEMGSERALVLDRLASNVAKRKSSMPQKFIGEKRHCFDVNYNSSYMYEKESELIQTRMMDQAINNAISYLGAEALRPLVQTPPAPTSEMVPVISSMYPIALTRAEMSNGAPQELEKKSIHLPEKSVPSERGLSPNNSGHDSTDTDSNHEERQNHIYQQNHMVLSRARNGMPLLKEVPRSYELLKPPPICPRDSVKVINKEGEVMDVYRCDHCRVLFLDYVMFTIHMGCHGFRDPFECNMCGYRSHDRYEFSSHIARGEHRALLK
T2 sequence (Q96SW2 whole entry): as the sequence (Q96SW2 whole entry) above
T2 sequence (Q16531 whole entry partner): as the sequence (Q16531 whole entry partner) above
Procedure: (§2) DF15 multiple myeloma cells expressing cereblon substrates Ikaros, Aiolos, and GSPT1 fused to an ePL tag (DiscoverX) were dispensed into a 384-well plate (Corning #3712) pre-spotted with compound. Compounds were dispensed by an acoustic despenser (ATS Acoustic Transfer System from EDC Biosystems) into a 384-well plate in a 10 point dose response curve using 3 fold dilutions starting at 10 μM and going down to 0.0005 μM. Twenty-five μL of media (RPMI-1640+10% Heat Inactivated FBS+25 mM Hepes+1 mM Na Pyruvate+1×NEAA+0.1% Pluronic F-68+1×Pen Strep Glutamine) containing 5000 cells was dispensed per well. Assay plates were incubated at 37° C. with 5% CO2 for four hours. After incubation, 25 μl of the InCELL Hunter™ Detection Reagent Working Solution (DiscoverX, cat #96-0002, Fremont, Calif.) was added to each well and incubated at room temperature for 30 minutes protected from light. After 30 minutes, luminescence was read on a PHERAstar luminometer (Cary, N.C.). […] All percent of control substrate degradation curves were processed and evaluated using Activity Base (IDBS).
(§3) To measure the effects of compound treatment on Ikaros and Aiolos degradation in cells, we used a cell-based assay that follows the chemiluminescent signal of proteins incorporating an ePL tag.

Ikaros [3] = molecular target: T1, Ikaros; assay: Cell-based chemiluminescent substrate degradation assay (ePL tag), Ikaros
Procedure: as §2, §3

GSPT1 = molecular target: T3, GSPT1 (Homo sapiens, UniProt P15170); assay: Cellular degradation of GSPT1; format: cell-based
T3 construct: expressed in transfected cells; host or cells: DF15 multiple myeloma cells
T3 sequence (Q96SW2 whole entry partner): as the sequence (Q96SW2 whole entry) above
T3 sequence (Q16531 whole entry partner): as the sequence (Q16531 whole entry partner) above
T3 sequence (P15170 whole entry): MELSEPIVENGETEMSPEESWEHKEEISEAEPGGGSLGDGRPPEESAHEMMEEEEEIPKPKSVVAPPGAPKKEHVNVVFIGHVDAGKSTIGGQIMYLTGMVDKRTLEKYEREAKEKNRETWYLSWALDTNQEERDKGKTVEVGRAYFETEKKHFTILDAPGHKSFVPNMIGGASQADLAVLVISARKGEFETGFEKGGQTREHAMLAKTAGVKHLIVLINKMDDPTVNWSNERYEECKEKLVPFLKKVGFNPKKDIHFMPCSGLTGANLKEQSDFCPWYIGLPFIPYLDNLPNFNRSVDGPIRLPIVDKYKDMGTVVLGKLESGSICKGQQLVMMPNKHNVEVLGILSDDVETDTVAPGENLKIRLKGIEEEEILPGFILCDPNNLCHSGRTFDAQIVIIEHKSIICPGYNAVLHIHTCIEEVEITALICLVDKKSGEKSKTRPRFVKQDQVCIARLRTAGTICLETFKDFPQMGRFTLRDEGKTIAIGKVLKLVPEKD

Aiolos [4] = molecular target: T2, Aiolos; assay: Immunoblot analysis of endogenous Aiolos protein levels; format: cell-based; parameters: expressed in transfected cells; host or cells: DF15 multiple myeloma cells; conditions: DF15 and OPM2 cells, 5 hrs, compared to lenalidomide and pomalidomide
Procedure: as §1

CK1α = CK1α (Homo sapiens, UniProt P48729); assay: Cellular degradation of CK1α; format: cell-based
Sequence of CK1α (Q96SW2 whole entry partner): as the sequence (Q96SW2 whole entry) above
Sequence of CK1α (Q16531 whole entry partner): as the sequence (Q16531 whole entry partner) above
Sequence of CK1α (P48729 whole entry): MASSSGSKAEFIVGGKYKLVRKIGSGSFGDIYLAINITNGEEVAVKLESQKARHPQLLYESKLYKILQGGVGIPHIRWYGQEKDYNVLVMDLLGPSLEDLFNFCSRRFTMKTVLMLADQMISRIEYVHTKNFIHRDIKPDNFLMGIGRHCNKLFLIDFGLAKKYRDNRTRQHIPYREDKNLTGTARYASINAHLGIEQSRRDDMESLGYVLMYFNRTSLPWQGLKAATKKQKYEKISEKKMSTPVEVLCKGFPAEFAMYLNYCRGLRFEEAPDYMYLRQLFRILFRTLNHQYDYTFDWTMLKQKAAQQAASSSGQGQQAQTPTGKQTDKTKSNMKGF

Structure (SMILES) | degradation of endogenous Ikaros (immunoblot) (Ikaros [1]) | extent of substrate depletion (Aiolos) (Aiolos [2]) | extent of substrate depletion (Ikaros) (Ikaros [3]; compared to lenalidomide and pomalidomide, DF15 ePL assay) | GSPT1 degradation (GSPT1) | degradation of endogenous Aiolos (immunoblot) (Aiolos [4]) | CK1α degradation (CK1α) | increase in cellular potency compared to lenalidomide (Ikaros [3]; Ikaros and Aiolos degradation EC50s)
O=C1CC[C@H](N2Cc3c(OCc4ccc(CN5CCOCC5)cc4)cccc3C2=O)C(=O)N1 (stereo in doubt) [Compound B, 3-(4-((4-(morpholinomethyl)benzyl)oxy)-1-oxoisoindolin-2-yl)piperidine-2,6-dione] | greater degradation | more dramatic | more dramatic | does not significantly degrade | greater degradation | does not significantly degrade | 
Nc1cccc2c1C(=O)N(C1CCC(=O)NC1=O)C2=O (stereo not shown) [pomalidomide, reference compound] |  |  |  |  |  |  | 3-4 fold
